Source: patent publication US20230337678A1, “NITRIC OXIDE-RELEASING ANTIBACTERIAL COMPOUNDS, FORMULATIONS, AND METHODS PERTAINING THERETO” (KNOW BIO, LLC, priority 2020, published 2023)

How the values were obtained:
[1] = tested on: Mycobacterium abscessus; assay: MIC/MBC assays, CLSI method; assay type: cell-based; conditions: Table 14, unit not given

| SMILES | NO-loading (compositions of MTDD (NCT-19-096) and β-cyclodextrin) [µmol/mg] | NO Load (Table 14, unit not given) | MBC ([1]; M. abscessus N0010, clinical) | MIC ([1]; M. abscessus N0010, clinical) | MBC ([1]; M. abscessus N0016, clinical) | MIC ([1]; M. abscessus N0016, clinical) | MBC ([1]; M. abscessus N0017, clinical) | MIC ([1]; M. abscessus N0017, clinical) | MBC ([1]; M. abscessus N0018, clinical) | MIC ([1]; M. abscessus N0018, clinical) | MBC ([1]; M. abscessus N0019, clinical) | MIC ([1]; M. abscessus N0019, clinical) | MBC ([1]; M. abscessus N0020, clinical) | MIC ([1]; M. abscessus N0020, clinical) | MBC ([1]; M. abscessus N0046) | MIC ([1]; M. abscessus N0046) |
| --- | --- | --- | --- | --- | --- | --- | --- | --- | --- | --- | --- | --- | --- | --- | --- | --- |
| OC[C@H]1O[C@@H]2O[C@H]3[C@H](O)[C@@H](O)[C@@H](O[C@H]4[C@H](O)[C@@H](O)[C@@H](O[C@H]5[C@H](O)[C@@H](O)[C@@H](O[C@H]6[C@H](O)[C@@H](O)[C@@H](O[C@H]7[C@H](O)[C@@H](O)[C@@H](O[C@H]8[C@H](O)[C@@H](O)[C@@H](O[C@H]1[C@H](O)[C@H]2O)O[C@@H]8CO)O[C@@H]7CO)O[C@@H]6CO)O[C@@H]5CO)O[C@@H]4CO)O[C@@H]3CO [0% MTDD/100% β-cyclodextrin, β-cyclodextrin] | 0.0 | – | – | – | – | – | – | – | – | – | – | – | – | – | – | – |
| C[C@@H]1CCC[C@H](C)N1[N+]([O-])=N[O-].[Na+] [cis-DMP/NO] | – | 6.9 | 4 | 1 | 4 | 2 | 4 | 2 | 4 | 1 | 4 | 2 | 2 | 1 | 4 | 2 |
